Target: MetAP-2 (Homo sapiens, UniProt P50579)
Assay: Degradation of MetAP-2 in HCT116 cells (Western blot, MetAp2/GAPDH signal)
Assay type: cell-based
Set-up: endogenous in cells; host or cells: HCT116
Conditions: for Signal MetAp2/GAPDH normalized to untreated (DMSO): 24 hrs, HTC116 cells, <1 means degradation; for reduction of MetAP-2 protein: after 24 h
Method: See scans below. […] The initial MetAP-2 degradation results were obtained after 24 h incubation of the compounds in three different concentrations (0.1; 1; 10 μM), cell lysis, SDS-PAGE separation, blotting and antibody aided detection.
Comparison of MetAP2 protein levels in HTC116 cells after compound treatments at different concentrations and time points. As control, DMSO was used and its values set as “1”. MetAp2 values <1 means degradation.
2. Exemplary Testing of the Compound
HCT116 cells were sown in 6-well plates. Pipette 1 mL fresh medium to every well and incubate for at least 1 h (37° C., 5% CO2, 95% rH).
Harvest and count cells in Vi-Cell. Equinr. 70198475 Adjust cell concentration to 0.35e^6 cells/mL and add 1 mL of cell suspension (total 0,35e^6 cells/well).
Incubate cells for 24 hours (37° C., 5% CO2, 95% rH)
HCT116: 24 h: ˜50% confluent before treatment
Compounds will be thawed the first time, stock: 10 mM; final concentration: 10 μM & 1 μM & 0.1 μM
Treatment with DMSO based solution with Digital Dispenser: HCT116 platte 2A1.jpg_meta.xml • create new dispensing protocol for compound • apply name of test compound and its stock concentration (in mM) for testing • 3×1:10 dilution series • final 0.3% DMSO, DMSO normalization for every well • shaking after compound/DMSO addition
Incubate cells for further 24 hours (37° C., 5% C02, 95% rH)
HCT116: 70-80% confluent before lysis • after incubation cells were lysed with RIPA lysis buffer including Halt™
all steps performed on ice or at 4° C. • aspirate supernatant from cells • wash cells twice with 2.0 mL ice cold PBS buffer • aspirate supernatant from cells after each washing step • lyse cells with 100 μL Ripa lysis buffer per well • scrape cells with cell scraper and transfer lysates to Eppendorf Cups • incubate for 15 min on ice • centrifuge […] at 13000×g and 4° C. • transfer supernatants to fresh Eppendorf cups • removal of 20 μL lysate for BCA assay • aliquot and freeze at −20° C.
Determination of protein concentration of lysates with BCA Protein Assay Kit. BSA supplied with the kit is 2 mg/mL.
Dilute the standard (Stock BSA concentration=2 mg/mL) in a 96 well plate: Samples were run 1:4. Dilute in lysing buffer, lysing buffer alone was run to determine the background from detergents in the assay.
BCA reagent: Dilute Reagent A and Reagent B in a 1:50 ratio. To 9.8 mL A add 200 μL B.
Assay Procedure: Pipette 5 μL/well of standard or samples to 96 wells (see plate layout). Samples were run in duplicate. Blanks=5 μL/well PBS or 5 μL/well lysing buffer. Add 100 μL/well of the prepared BCA reagent. Tap plate to mix or shake for 1-2 min on the Eppendorf mixer. Incubate at 37° C. for 30 min.
Read the OD at 562 nm. Plate was read on EnVision 2104 Multilabel Reader (Perkin Elmer, Equipment Number 70160330) last verification of instrument 17.08.2017 (once a year) (A25/531). AEH181012_BCA.csv
In EXCEL the duplicates were averaged and the average background PBS was subtracted for the standard curve.
A trend line was created, the intercept (b) was set at 0. The R^2 should be >0.950 for acceptable results. The lysate buffer blank was subtracted from the test values and the averaged, background-corrected O.D. values were used with the equation to calculate mg/ml and then were corrected for the dilution factor for the final mg/mL value. Only results from OD values within the range of the standard curve are acceptable. Values outside of the standard curve range are ignored. BCA AEH00350 Berechnung.xlsx
6. Sample Calculation and Preparation • thaw lysates of AEH00350 on ice • calculate sample volume for Western Blot loading 10 μg total protein/13 μL per slot: • dilute samples with lysis buffer and 10× reducing agent & 4×LDS buffer to 10 μg. • heat them at 70° C. for 10 min and 1000 rmp
7. […]

Chain of MetAP-2 (P50579 whole entry): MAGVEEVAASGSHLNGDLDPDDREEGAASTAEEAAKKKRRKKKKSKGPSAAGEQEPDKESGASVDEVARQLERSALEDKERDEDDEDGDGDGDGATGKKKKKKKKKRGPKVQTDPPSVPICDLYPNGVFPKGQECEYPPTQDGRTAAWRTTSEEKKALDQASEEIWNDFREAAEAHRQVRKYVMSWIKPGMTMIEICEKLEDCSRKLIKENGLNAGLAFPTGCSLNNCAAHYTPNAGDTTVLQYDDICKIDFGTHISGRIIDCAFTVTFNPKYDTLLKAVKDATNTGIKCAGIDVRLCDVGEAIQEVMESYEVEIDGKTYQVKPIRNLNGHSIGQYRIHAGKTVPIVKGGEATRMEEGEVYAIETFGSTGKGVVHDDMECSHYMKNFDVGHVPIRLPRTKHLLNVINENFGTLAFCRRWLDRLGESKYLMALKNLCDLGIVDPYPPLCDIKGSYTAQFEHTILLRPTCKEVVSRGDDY

| Signal MetAp2/GAPDH normalized to untreated (DMSO) (0.1 μM) | Signal MetAp2/GAPDH normalized to untreated (DMSO) (1 μM) | Signal MetAp2/GAPDH normalized to untreated (DMSO) (10 μM) | reduction of MetAP-2 protein (10 μM) | reduction of MetAP-2 protein (0.1 μM) | SMILES |
| --- | --- | --- | --- | --- | --- |
| 1.2 | 1.0 | 0.6 | 40% |  | O=C1CCC(N2C(=O)c3ccc(NCCOCCOCCOCCOCCNC(=O)c4cc5cc(N6CCC(O)(C(=O)NCc7cc(F)cc(F)c7)C6=O)ccc5[nH]4)cc3C2=O)C(=O)N1 (stereo not drawn) [Compound A2, 5-[3-[(3,5-difluorophenyl)methylcarbamoyl]-3-hydroxy-2-oxo-pyrrolidin-1-yl]-N-[2-[2-[2-[2-[2-[[2-(2,6-dioxo-3-piperidyl)-1,3-dioxo-isoindolin-5-yl]amino]-ethoxy]ethoxy]ethoxy]ethoxy]ethyl]-1H-indole-2-carboxamide] |
| 0.7 | 0.6 | 0.3 | 70% | 30% | O=C1CCC(N2C(=O)c3cccc(NCCOCCOCCOCCOCCOCCNC(=O)c4cc5cc(N6CCC(O)(C(=O)NCc7cc(F)cc(F)c7)C6=O)ccc5[nH]4)c3C2=O)C(=O)N1 (stereo not drawn) [Compound A1, 5-[3-[(3,5-difluorophenyl)methylcarbamoyl]-3-hydroxy-2-oxo-pyrrolidin-1-yl]-N-[2-[2-[2-[2-[2-[2-[[2-(2,6-dioxo-3-piperidyl)-1,3-dioxo-isoindolin-4-yl]amino]ethoxy]ethoxy]ethoxy]ethoxy]ethoxy]ethyl]-1H-indole-2-carboxamide] |

Reference: patent US20220062258A1, “Heterocyclic derivatives” (Merck Patent GmbH, priority 2019, published 2022)
